Target: Casein kinase I isoform alpha (Homo sapiens, UniProt P48729)
Assay: Binding affinity to human CK1alpha2

Chain of Casein kinase I isoform alpha (P48729 whole entry, canonical isoform): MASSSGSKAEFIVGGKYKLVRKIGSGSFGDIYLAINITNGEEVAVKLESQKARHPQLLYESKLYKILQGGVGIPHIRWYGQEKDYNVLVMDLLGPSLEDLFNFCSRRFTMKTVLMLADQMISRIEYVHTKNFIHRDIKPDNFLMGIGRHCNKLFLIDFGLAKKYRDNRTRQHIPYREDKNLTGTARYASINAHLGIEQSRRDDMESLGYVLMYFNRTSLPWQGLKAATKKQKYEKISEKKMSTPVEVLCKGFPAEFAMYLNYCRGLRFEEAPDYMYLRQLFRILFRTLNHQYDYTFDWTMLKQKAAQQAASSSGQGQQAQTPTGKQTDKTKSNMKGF

Kd: 225 nM
SMILES: CC(=O)c1c(-c2ccncc2)[nH]c(-c2ccncc2)c1C [1-(4-methyl-2,5-di(pyridin-4-yl)-1H-pyrrol-3-yl)ethanone]

Source: BindingDB's records for doi:10.1021/jm8011036 (Glaxosmithkline, 2008)
